Test: Heparin oral/intracolonic delivery in rats, heparin activity by APTT
Type: in vivo, Sprague-Dawley rats
Protocol: Oral gavage (PO) and/or intracolonic (IC) dosing solutions containing a delivery agent compound and heparin sodium USP in 25% aqueous propylene glycol were prepared. Either the sodium salt of the compound was used or the free acid was converted to the sodium salt with one equivalent of sodium hydroxide. Typically, delivery agent compound and heparin (about 166-182 IU/mg) were mixed by vortex as dry powders. This dry mixture was dissolved in 25% v/v aqueous propylene glycol, vortexed and placed in a sonicator (about 37° C.). The pH was adjusted to about 7 (6.5 to 8.5) with aqueous NaOH (2N). The dosing solution was sonicated to produce a clear solution. The final volume was adjusted to 3.0 mL. The final delivery agent compound dose, heparin dose and volume dose amounts are listed below in Table 2.
The typical dosing and sampling protocols were as follows. Male Sprague-Dawley rats weighing between 275-350 g were fasted for 24 hours and were anesthetized with ketamine hydrochloride (88 mg/kg) intramuscularly immediately prior to dosing. A dosing group of five rats was administered one of the dosing solutions. For oral gavage (PO) dosing, an 11 cm Rusch 8 French catheter was adapted to a 1 mL syringe with a pipette tip. The syringe was filled with dosing solution by drawing the solution through the catheter, which was then wiped dry. The catheter was placed down the esophagus leaving 1 cm of tubing past the rat's incisors. Solution was administered by pressing the syringe plunger. For intracolonic (IC) dosing, a 7.5 cm 8 fr Rusch catheter was adapted to a 1 ml syringe with a pipette tip. The dosing catheter was inserted into the colon through the anus. until the tube was no longer visible. The dosing solution was expressed slowly into the colon.
Citrated blood samples were collected by cardiac puncture following the administration of ketamine (88 mg/kg), typically at time—0.25, 0.5, 1.0 and 1.5 hours. Heparin activity was determined by utilizing the activated partial thromboplastin time (APTT) according to the method of Henry, J. B., Clinical Diagnosis and Management by Laboratory Methods, Philadelphia, Pa., W. B. Saunders (1979). Previous studied indicated baseline values of about 20 sec. Results from the five rats in each group were averaged for each time point. The maximum is reported below in Table 2.

[1] = IC, 1 ml/kg, compound 50 mg/kg, heparin 25 mg/kg
[2] = PO, 3 ml/kg, compound 200 mg/kg, heparin 100 mg/kg
[3] = IC, 1 ml/kg, compound 50 mg/kg, heparin 100 mg/kg

Cc1cc(F)cc(C(=O)Nc2ccc(CCC(=O)O)cc2)c1O [Compound 6]
Mean Peak APTT (sec) ± SD) [1]: 90.6 ± 50.9 s
Mean Peak APTT (sec) ± SD) [2]: 33.8 ± 18.7 s

COc1ccc(O)c(C(=O)Nc2ccc(CCCC(=O)O)cc2)c1 [Compound 9]
Mean Peak APTT (sec) ± SD) [3]: 192.8 ± 50.9 s

O=CNc1ccccc1C(=O)Nc1ccc(CCC(=O)O)cc1 [Compound 7]
Mean Peak APTT (sec) ± SD) [1]: 28.6 ± 6.1 s

COc1ccc(O)c(C(=O)Nc2ccc(CCC(=O)O)cc2)c1 [Compound 8]
Mean Peak APTT (sec) ± SD) [3]: 266.4 ± 165.7 s

O=C([O-])CCc1ccc(NC(=O)c2ccccc2O)c(F)c1.[Na+] [Compound 5, sodium 3-(4-salicyloylamino-3-fluorophenyl)propionate]
Mean Peak APTT (sec) ± SD) [1]: 89.9 ± 68.6 s
Mean Peak APTT (sec) ± SD) [2]: 32.6 ± 5 s

O=C(O)CCCCCCCCCNC(=O)c1cc(Cl)cc(Cl)c1O [Compound 4, N-(3,5-dichlorosalicyloyl)-10-aminodecanoic acid]
Mean Peak APTT (sec) ± SD) [1]: 94 ± 47.5 s

COc1ccccc1C(=O)NCCCCCCCCCCC(=O)O [Compound 3]
Mean Peak APTT (sec) ± SD) [1]: 44.2 ± 16.2 s

COc1ccc(O)c(C(=O)NCCCCCCCC(=O)O)c1 [Compound 1]
Mean Peak APTT (sec) ± SD) [1]: 102.3 ± 130.4 s
